From patent US11267826B2, “Penicillin-binding protein inhibitors” (priority 2017, dated 2022)

Key:
E. coli K12 PBP1a/b = test: Bocillin FL competition binding assay, PBP1a/1b combined; parameters: species or system Escherichia coli K12; conditions: 15 min pre-incubation, PBP 1a/1b combined
Description: (§1) To determine the ability of test compounds to bind Penicillin Binding Proteins (PBPs), a competition binding assay using Bocillin FL (fluorescent derivative of penicillin V) was adapted from the classical method used to assess PBP potency of beta-lactams.
(§2) Penicillin binding proteins were isolated from Escherichia coli K12 by growth of Escherichia coli K12 from a single colony in 4 L of Luria-Bertani (LB) broth at 35° C. and 250 rpm to an OD600 nm of 0.5. The cells were harvested by centrifugation at 7,000×g for 10 min. at 4° C. Cells were resuspended and washed in 50 mM potassium phosphate pH 7.5. The cells were re-suspended in sonication buffer [50 mM Tris-HCl pH 7.5, 1 mM MgCl2, 1 mM beta-mercaptoethanol, and 5 μg/mL DNAse I] and sonicated by 4 passes of 30 seconds at 45 W on ice. The sample was clarified by centrifugation at 3,000×g to remove cell debris and unbroken cells and supernatant containing the membrane proteins was retained. The membrane proteins including the PBPs were further purified from soluble constituents by an ultracentrifugation step at 100,000×g for 30 min. at 4° C. The membrane proteins are washed twice with 10 mM sodium phosphate pH 7, resuspended in a volume of 5 mL, quantitated by BCA assay, adjusted to […] and frozen at −80° C. until use.
(§3) The adapted Bocillin FL competition binding method described herein incorporates a 15 min. pre-incubation of test compound with isolated PBPs to attempt to balance the difference in mechanism of inhibition between beta-lactams (largely irreversible covalent bond to active site Serine) and the boron-containing PBP inhibitor test compounds (reversible covalent bond to active site Serine). Briefly, 50 μL reactions consisted of 100 μg's of total membrane protein extracts containing PBPs incubated with a dilution series of test compound ranging from 0.005 μg/mL to 2,480 μg/mL in 10 mM sodium phosphate pH7 containing 350 mM NaCl. Thirty minute reactions at 35° C. were initiated by addition of […] Bocillin FL, quenched by addition of SDS-PAGE loading buffer containing sodium dodecyl sulfate (SDS) and heated for 15 minutes at 95° C. to denature proteins in preparation for SDS-polyacrylamide gel electrophoresis. The Bocillin FL labeled PBPs are then separated by SDS-PAGE in Novex NuPage 10% Bis-Tris pre-cast gels (Invitrogen). The SDS-PAGE gel, post-electrophoresis, is then washed in water to remove excess SDS for 10 minutes at room temperature and placed on the scanning bed of a GE Healthcare/Amersham Biosciences Storm 860 fluorescence scanner. The excitation wavelength is in the blue spectrum at 450 nm and the emission at 520 nm is captured by the instrument. Effective PBP inhibitors are detected by a reduction in Bocillin FL labeling of the particular PBP over the dose range of test compound in a dose-responsive manner. High molecular weight PBP 1a/1b are not resolved by these gels, thus we report HMW PBP binding results in μg/mL for PBPs 1a/1b combined as well as for PBP2 and PBP3.
(§4) Representative results are shown in Table 2, where A represents a potency of >1000 μg/mL, B represents a potency between 64 and 1000 μg/mL inclusive, and C represents a potency of <64 μg/mL. NT=Not Tested.

S. aureus ATCC 29213 = test: Broth microdilution MIC assay, S. aureus; type: cell-based; conditions: Staphylococcus aureus, ATCC29213; broth microdilution, 16-20 hours at 37° C.; read-out: S. aureus 29213 MIC
How it was run: (§5)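 Visual no-growth endpoint defines the MIC. Inoculum of 5×10^5 CFU/mL in divalent-cation-supplemented Mueller-Hinton broth was exposed to 2-fold dilution series of compound, then incubated 16-20 hours at 37° C per CLSI.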

[1] = system: hyper-permeable E. coli 901C; test: Broth microdilution MIC assay, hyper-permeable E. coli; type: cell-based; conditions: Escherichia coli, read-out: E. coli 901C MIC
How it was run: as §5

E. coli PBP2 = biological target: T1, E. coli PBP2 (Escherichia coli, UniProt P0AD65); test: Bocillin FL competition binding assay, PBP2; parameters: species or system Escherichia coli K12; conditions: 15 min pre-incubation
T1 construct: 100 μg's of total membrane protein extracts containing PBPs; endogenous in cells; host or cells: Escherichia coli K12, membrane protein fraction
Description: as §1, §2, §3, §4

E. coli PBP3 = biological target: T2, E. coli PBP3 (Escherichia coli, UniProt P0AD68); test: Bocillin FL competition binding assay, PBP3; parameters: species or system Escherichia coli K12; conditions: 15 min pre-incubation
T2 construct: 100 μg's of total membrane protein extracts containing PBPs; endogenous in cells; host or cells: Escherichia coli K12, membrane protein fraction
Description: as §1, §2, §3, §4

T1 sequence (P0AD65 whole entry): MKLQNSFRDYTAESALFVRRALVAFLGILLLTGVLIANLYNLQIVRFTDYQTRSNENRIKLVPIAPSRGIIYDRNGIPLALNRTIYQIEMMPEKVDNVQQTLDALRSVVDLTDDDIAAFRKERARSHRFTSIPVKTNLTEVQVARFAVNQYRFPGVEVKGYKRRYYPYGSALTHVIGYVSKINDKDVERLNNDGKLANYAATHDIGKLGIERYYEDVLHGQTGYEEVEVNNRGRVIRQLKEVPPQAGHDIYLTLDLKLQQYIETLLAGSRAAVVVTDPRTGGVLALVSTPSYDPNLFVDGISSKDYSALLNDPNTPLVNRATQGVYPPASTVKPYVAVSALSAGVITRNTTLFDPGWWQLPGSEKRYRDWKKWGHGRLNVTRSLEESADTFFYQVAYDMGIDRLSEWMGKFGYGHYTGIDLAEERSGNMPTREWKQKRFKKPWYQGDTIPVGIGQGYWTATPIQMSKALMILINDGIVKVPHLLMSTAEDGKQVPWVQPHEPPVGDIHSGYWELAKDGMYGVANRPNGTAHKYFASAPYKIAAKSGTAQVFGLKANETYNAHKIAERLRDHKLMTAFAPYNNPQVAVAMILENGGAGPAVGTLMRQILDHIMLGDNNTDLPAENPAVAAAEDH
T2 sequence (P0AD68 1-577): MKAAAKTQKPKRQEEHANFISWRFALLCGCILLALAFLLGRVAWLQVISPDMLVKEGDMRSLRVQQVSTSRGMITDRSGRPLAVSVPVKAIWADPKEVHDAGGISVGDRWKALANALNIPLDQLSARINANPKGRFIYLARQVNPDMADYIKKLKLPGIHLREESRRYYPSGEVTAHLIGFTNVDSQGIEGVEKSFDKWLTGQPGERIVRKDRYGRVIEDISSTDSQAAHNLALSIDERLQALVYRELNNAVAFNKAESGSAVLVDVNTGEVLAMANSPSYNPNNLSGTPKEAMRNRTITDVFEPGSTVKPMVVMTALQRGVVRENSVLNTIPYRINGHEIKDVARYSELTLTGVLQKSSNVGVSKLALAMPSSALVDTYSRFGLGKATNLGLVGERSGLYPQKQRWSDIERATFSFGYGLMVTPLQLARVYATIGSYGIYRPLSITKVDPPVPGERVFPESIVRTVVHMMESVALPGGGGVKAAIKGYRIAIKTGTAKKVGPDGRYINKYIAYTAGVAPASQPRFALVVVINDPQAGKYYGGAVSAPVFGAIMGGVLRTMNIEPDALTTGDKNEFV

Structure (SMILES) | E. coli K12 PBP1a/b Potency (E. coli K12 PBP1a/b) | MIC (S. aureus ATCC 29213) | MIC [1] | E. coli PBP2 Potency (E. coli PBP2) | E. coli PBP3 Potency (E. coli PBP3)
Nc1nc(/C(=N/OCC(=O)N2CCNCC2)C(=O)N[C@H]2Cc3cccc(C(=O)O)c3OB2O)cs1 [Example 58, (R,Z)-3-(2-(2-aminothiazol-4-yl)-2-((2-oxo-2-(piperazin-1-yl)ethoxy)imino)acetamido)-2-hydroxy-3,4-dihydro-2H-benzo[e][1,2]oxaborinine-8-carboxylic Acid] | B (B represents a potency between 64 and 1000 μg/mL inclusive) | > 128 µg/mL | < 64 µg/mL | C (C represents a potency of <64 μg/mL) | C (C represents a potency of <64 μg/mL)
CN(C)C(=O)CO/N=C(\C(=O)N[C@H]1Cc2cccc(C(=O)O)c2OB1O)c1csc(N)n1 [Example 60, (R,Z)-3-(2-(2-aminothiazol-4-yl)-2-((2-(dimethylamino)-2-oxoethoxy)imino)acetamido)-2-hydroxy-3,4-dihydro-2H-benzo[e][1,2]oxaborinine-8-carboxylic Acid] | B (B represents a potency between 64 and 1000 μg/mL inclusive) | > 128 µg/mL | < 64 µg/mL | C (C represents a potency of <64 μg/mL) | C (C represents a potency of <64 μg/mL)
N#CC1CCC(NC(=O)CO/N=C(\C(=O)N[C@H]2Cc3cccc(C(=O)O)c3OB2O)c2csc(N)n2)CC1 (stereo partly drawn) [Example 62, (R)-3-((Z)-2-(2-aminothiazol-4-yl)-2-((2-(((1r,4R)-4-cyanocyclohexyl)amino)-2-oxoethoxy)imino)acetamido)-2-hydroxy-3,4-dihydro-2H-benzo[e][1,2]oxaborinine-8-carboxylic Acid] | B (B represents a potency between 64 and 1000 μg/mL inclusive) | > 128 µg/mL | < 64 µg/mL | B (B represents a potency between 64 and 1000 μg/mL inclusive) | C (C represents a potency of <64 μg/mL)
N=C(NCCN)c1ccc(OCCO/N=C(\C(=O)N[C@H]2Cc3cccc(C(=O)O)c3OB2O)c2csc(N)n2)cc1 [Example 64, (R,Z)-3-(2-((2-(4-(N-(2-aminoethyl)carbamimidoyl)phenoxy)ethoxy)imino)-2-(2-aminothiazol-4-yl)acetamido)-2-hydroxy-3,4-dihydro-2H-benzo[e][1,2]oxaborinine-8-carboxylic Acid] | C (C represents a potency of <64 μg/mL) | > 128 µg/mL | < 64 µg/mL | B (B represents a potency between 64 and 1000 μg/mL inclusive) | C (C represents a potency of <64 μg/mL)
NCCCC[C@H](NC(=O)CO/N=C(\C(=O)N[C@H]1Cc2cccc(C(=O)O)c2OB1O)c1csc(N)n1)C(=O)O [Example 65, (R)-3-((Z)-2-((2-(((S)-5-amino-1-carboxypentyl)amino)-2-oxoethoxy)imino)-2-(2-aminothiazol-4-yl)acetamido)-2-hydroxy-3,4-dihydro-2H-benzo[e][1,2]oxaborinine-8-carboxylic] | C (C represents a potency of <64 μg/mL) | > 128 µg/mL | < 64 µg/mL | B (B represents a potency between 64 and 1000 μg/mL inclusive) | C (C represents a potency of <64 μg/mL)
NCCCC[C@@H](NC(=O)CO/N=C(\C(=O)N[C@H]1Cc2cccc(C(=O)O)c2OB1O)c1csc(N)n1)C(=O)O [Example 66, (R)-3-((Z)-2-((2-(((R)-5-amino-1-carboxypentyl)amino)-2-oxoethoxy)imino)-2-(2-aminothiazol-4-yl)acetamido)-2-hydroxy-3,4-dihydro-2H-benzo[e][1,2]oxaborinine-8-carboxylic Acid] | C (C represents a potency of <64 μg/mL) | > 128 µg/mL | < 64 µg/mL | B (B represents a potency between 64 and 1000 μg/mL inclusive) | C (C represents a potency of <64 μg/mL)
NCCCCCNC(=O)CO/N=C(\C(=O)N[C@H]1Cc2cccc(C(=O)O)c2OB1O)c1csc(N)n1 [Example 67, (R,Z)-3-(2-((2-((5-aminopentyl)amino)-2-oxoethoxy)imino)-2-(2-aminothiazol-4-yl)acetamido)-2-hydroxy-3,4-dihydro-2H-benzo[e][1,2]oxaborinine-8-carboxylic Acid] | B (B represents a potency between 64 and 1000 μg/mL inclusive) | > 128 µg/mL | < 64 µg/mL | B (B represents a potency between 64 and 1000 μg/mL inclusive) | C (C represents a potency of <64 μg/mL)
CNC(=O)C(C)(C)O/N=C(\C(=O)N[C@H]1Cc2cccc(C(=O)O)c2OB1O)c1csc(N)n1 [Example 69, (R,Z)-3-(2-(2-aminothiazol-4-yl)-2-(((2-methyl-1-(methylamino)-1-oxopropan-2-yl)oxy)imino)acetamido)-2-hydroxy-3,4-dihydro-2H-benzo[e][1,2]oxaborinine-8-carboxylic Acid] | C (C represents a potency of <64 μg/mL) | > 128 µg/mL | < 64 µg/mL | C (C represents a potency of <64 μg/mL) | C (C represents a potency of <64 μg/mL)
CNC(=O)C(C)O/N=C(\C(=O)N[C@H]1Cc2cccc(C(=O)O)c2OB1O)c1csc(N)n1 (stereo partly drawn) [Example 70, (3R)-3-((Z)-2-(2-aminothiazol-4-yl)-2-(((1-(methylamino)-1-oxopropan-2-yl)oxy)imino)acetamido)-2-hydroxy-3,4-dihydro-2H-benzo[e][1,2]oxaborinine-8-carboxylic Acid] | C (C represents a potency of <64 μg/mL) | > 128 µg/mL | < 64 µg/mL | C (C represents a potency of <64 μg/mL) | C (C represents a potency of <64 μg/mL)
CC(O/N=C(\C(=O)N[C@H]1Cc2cccc(C(=O)O)c2OB1O)c1csc(N)n1)C(=O)O (stereo partly drawn) [Example 71, (3R)-3-((Z)-2-(2-aminothiazol-4-yl)-2-((1-carboxyethoxy)imino)acetamido)-2-hydroxy-3,4-dihydro-2H-benzo[e][1,2]oxaborinine-8-carboxylic Acid] | C (C represents a potency of <64 μg/mL) | > 128 µg/mL | < 64 µg/mL | C (C represents a potency of <64 μg/mL) | C (C represents a potency of <64 μg/mL)
CC(C)(O/N=C(\C(=O)N[C@H]1Cc2cccc(C(=O)O)c2OB1O)c1csc(N)n1)C(N)=O [Example 72, (R,Z)-3-(2-(((1-amino-2-methyl-1-oxopropan-2-yl)oxy)imino)-2-(2-aminothiazol-4-yl)acetamido)-2-hydroxy-3,4-dihydro-2H-benzo[e][1,2]oxaborinine-8-carboxylic Acid] | C (C represents a potency of <64 μg/mL) | > 128 µg/mL | < 64 µg/mL | C (C represents a potency of <64 μg/mL) | C (C represents a potency of <64 μg/mL)
